Source: patent publication US8212022B2, “Effect of carbohydrate concentration on sucralose extraction efficiency” (Tate & Lyle Technology Limited, priority 2008, dated 2012)

Experiment: Partition coefficient K of sucralose between ethyl acetate and water (equal volumes)
Type: physicochemical
Settings: for partition coefficient, K: equal volumes of ethyl acetate and water
Description: Unless the context indicates otherwise, in the specification and claims, the terms organic solvent, first organic solvent, second organic solvent, tetrachloro saccharide, trichloro saccharide, dichloro saccharide, salt, sucralose-6-ester, carbohydrate, and similar terms also include mixtures of such materials. The term saccharide includes monosaccharide, disaccharides, and polysaccharides. Solvent means a liquid that dissolves another material. An aqueous solvent is one in which water is the primary (greater than 50 vol % of the solvents present) or only solvent. Partition coefficient, K, of a carbohydrate between an organic solvent and water is the concentration of the carbohydrate in the organic phase divided by the concentration of the carbohydrate in the aqueous phase when equal volumes of organic solvent and water are used. […] Crystallization includes processes in which a solution is rendered saturated or supersaturated with respect to a dissolved component, and the formation of crystals of this component is achieved. The initiation of crystal formation can be spontaneous, or it can require the addition of seed crystals. Crystallization also describes the situation in which a solid or liquid material is dissolved in a solvent to yield a solution which is then rendered saturated or supersaturated so as to obtain crystals. Also, included in the term crystallization are the ancillary processes of washing the crystals with one or more solvents, drying the crystals, and harvesting the final product so obtained. Unless otherwise specified, all percentages are percentages by weight, all temperatures are in degrees Centigrade (degrees Celsius), and all solvent ratios are volume to volume.
Aqueous solutions of sucralose were prepared at various carbohydrate concentrations. An equal volume of ethyl acetate was then added to each solution and the two phases mixed thoroughly. After the two phases separated, the carbohydrate concentration in each phase was determined. The K value was calculated by dividing the concentration of sucralose in the ethyl acetate phase by the concentration of sucralose in the aqueous phase.

Structure (SMILES)	partition coefficient, K (initial concentration of sucralose in the aqueous phase about 5 wt %)	partition coefficient, K (initial concentration of sucralose in the aqueous phase about 15 wt %)	partition coefficient, K (initial concentration of sucralose in the aqueous phase about 16 wt %)	partition coefficient compared with sucralose (organic solvent such as ethyl acetate and water, equal volumes, same conditions as sucralose)
OC[C@H]1O[C@H](O[C@]2(CCl)O[C@H](CCl)[C@@H](O)[C@@H]2O)[C@H](O)[C@@H](O)[C@H]1Cl [sucralose, 4,1′,6′-trichloro-4,1′,6′-trideoxygalactosucrose]	0.4	about 1.1	about 1.2	
CC(=O)OC[C@H]1O[C@H](O[C@]2(CCl)O[C@H](CCl)[C@@H](O)[C@@H]2O)[C@H](O)[C@@H](O)[C@H]1Cl [sucralose-6-acetate]				larger that the corresponding value for sucralose
